Data as given in patent publication EP0392745B1, “Immunoconjugates and prodrugs and their use in association for drug delivery” (CELLTECH LIMITED, priority 1989, dated 1990).
Where two headings read alike, the source gives them in different places.

Assays:
[1] = test system: Mouse lymphoma cells, line L5178Y clone 3.7.2.C; experiment: Cell tissue culture cytotoxicity assay of relative drug/prodrug toxicity; assay type: cell-based
Method: A tissue culture assay using a mouse lymphoma cell line [Phillips (1974), Biochem. Pharmacol. 23, 131-138] was used to determine the relative toxicity of drug and prodrug samples. The cepholosporin - prodrugs tested were those of Example 2,5,6 - 10 and 12.
For compounds of Examples 2, and 7-10 the corresponding non-cephalosporin linked drug was tested. In the case of compounds of Examples 5, 6 and 12 the drug portion of the prodrug was generated in situ in the assay by the addition of the enzyme β-lactamase as indicated below.
Mouse lymphoma cells, line L5178Y clone 3.7.2.C, was used for these studies. This clone was derived from the L5178Y wild-type line and is heterozygous for the thymidine kinase locus. It is widely used for assays of mutation to thymidine analogue resistance (loss of thymidine kinase). Stocks were maintained frozen in liquid nitrogen and recovered 7 days before the start of the study.
The cells were grown in RPMI 1640 medium buffered with 25 mM HEPES, and supplemented with 10% horse serum, 1mM sodium pyruvate, and 0.05% Pluriol (PF 6800 from BASF). In most cases, penicillin (100 iu/ml) and streptomycin (100µg/ml) were also included in the medium. Stock cultures were maintained by subculture into fresh medium every 2-3 days. Incubation was at 37 °C in an atmosphere of 5% CO₂ in air. Under these conditions, the cells grew as a static cell suspension with a population doubling time (cell cycle time) of 10-12 hr.
A growing culture, at a cell density of 1-2 x 10⁶/ml, was diluted with fresh medium to a density of 5 x 10⁵ cells/ml. An appropriate number of universal bottles was prepared with 4.5ml medium and O.5ml cell suspension to give a final cell concentration of 5 x 10⁴ cells/ml. In some tests, the cells were centrifuged and resuspended in Hank's Balanced Salt Solution (HBSS) to allow treatment in a simpler medium. […]
Cell growth was expressed as the number of population doublings (PD) achieved during a given time period ( t hrs ), calculated as follows: [drawing 5]
Growth relative to control ( % G ) was calculated for each treatment as follows: [drawing 6] […]

[2] = test system: O=C(Cc1cccs1)N[C@@H]1C(=O)N2C(C(=O)O)=C(CSc3ncnc4[nH]cnc34)CS[C@H]12; experiment: purified protein, by the assay type; details: 37.0 °C

`Nc1nc(SCC2=C(C(=O)O)N3C(=O)[C@@H](NC(=O)Cc4cccs4)[C@H]3SC2)c2[nH]cnc2n1` [Example 9, 3-(Guanin-6-ylthiomethyl)-7β-(2-acetamido)-3-cephem-4-carboxylic acid] was tested. Which “Differential Toxicity (ID50 Prodrug/drug)” value ([1]; mouse lymphoma L5178Y cells) did it give?
The value was 13.

What about the IC50 ([1]; mouse lymphoma L5178Y cells, growth relative to control, read-out: ID50 (the source's name)) of the same compound?
Its IC50 is 6.44 µM.

For “β-lactamase (E.coli RTEM) (Escherichia coli)”, which Km [2] is on record?
The Km was 138 µM.

How did the IC50 ([1]; Mus musculus, L5178Y, read-out: ID50) turn out when `Nc1nc2nc[nH]c2c(=S)[nH]1` [Thioguanine (drug), Thioguanine, reference compound] was run?
Its IC50 is 0.53 µM.
